According to patent publication US20250108068A1, “COMPOSITIONS AND METHODS FOR ALLEVIATING PULMONARY AILMENTS” (Color Ventures LLC, priority 2023, published 2025):

Assays:
[1] = test system: sheep; assay: Tracheal mucus velocity (TMV) in sheep after CFTR inhibition; assay type: in vivo; settings: nebulization, over a period of 2-3 hours
Description: Modeling mucociliary clearance. To model mucociliary clearance, sheep 40-50 kg were intubated and the velocity of mucociliary clearance in the trachea was measured by insufflation of radio-opaque Teflon discs were placed into the sheep trachea so that they become embedded in the mucus in the trachea. The movement of multiple discs over several minutes was determined using fluoroscopy and the tracheal mucus velocity (TMV) is calculated as the average that the discs travel per minute. After establishing a baseline TMV, a potent long-lasting inhibitor of CFTR (INH-172) was delivered by nebulization with TMV measurements performed every hour, and over a period of 2-3 hours the TMV declines by approximately 50% in a manner like CF where the inability to secrete Cl^− and NaHCO3 results in dehydration of the airways and slowing of mucociliary clearance.
Once the stable inhibition of TMV has been established, typically at hour 4, the test compound was delivered by nebulization and TMV measured for an additional 8 hours. Inhibitors of ENaC like amiloride (as described in Scott, David W., et al., American Journal of Respiratory and Critical Care Medicine 196.6 (2017): 734-744, incorporated herein in its entirety) and P1037/VX371 show rescue of TMV that is of limited duration with an effect that only lasts for 2-3 hours, due to systemic clearance.

[2] = test system: test epithelia (MucilAir™); assay: Cilia beating frequency (CBF) and % active area; assay type: cell-based, human; settings: positive control, 100 μM in basolateral compartment for 2 hours
Description: In the studies described herein, test epithelia (MucilAir™, Epithelix) are reconstituted from cells isolated from a healthy bronchial donor. The formulation is exposed apically to mimic deposition on the nasal mucosa via inhalation. In the studies described herein, positive controls depend on experiment. For example: Isoproterenol 100 μM in culture medium; CBF activator applied in basolateral compartment ([…]) for 2 hours (CBF positive control); Isoproterenol 100 μM in culture medium (MCC positive control); […] Timeline of Epithelia Experiments. At time point 0, epithelia are treated with the test formulation or control using an apical mode of administration. Test formulations or control were exposed at a quantity of 10 μL, at the concentrations in Table 1. […] In some embodiments, CBF is analyzed with Sisson-Ammons Video Analysis (SAVA) software (Sisson et al., Journal of microscopy 211.2 (2003): 103-111) using an inverted phase contrast microscope (Zeiss®, Germany). In some embodiments, CBF is analyzed with Epithelix software (Cilia-X). […] In some embodiments, two videos are recorded per well at 120 frames per second with a total of 512 frames per video. In other embodiments, the CBF is expressed as Hz 256, wherein movies are captured at a high frequency rate of 125 frames per second. […]

SMILES | Decline of TMV from baseline [1] | Cilia beating frequency [2]
O=C(O)c1ccc(C=C2SC(=S)N(c3cccc(C(F)(F)F)c3)C2=O)cc1 [INH-172] | approximately 50% | –
CC(C)NCC(O)c1ccc(O)c(O)c1 (centres unmarked) [positive control of cilia beating, Isoproterenol] | – | highest cilia beating frequency
